Measured values as given in patent US9650360B2, “Anti-mycobacterial drugs against tuberculosis” (priority 2012, dated 2017).

Tested on: HIV
Test: in vitro anti-HIV activity in cell culture
Type: cell-based

O=C(/C=C(\O)c1cc(Cc2c(F)cc(F)cc2F)cn(Cc2ccccc2F)c1=O)C(=O)N1CCN(c2cccc3ccccc23)CC1
EC90 (concentration for 90% inhibition of virus replication): nM range
